Laboratory results reported in publication PMC4183567, “Cysteine Transport through Excitatory Amino Acid Transporter 3 (EAAT3)” (PLoS ONE, 2014).

How the values were obtained:
[1] = target: T1, EAAT3 (Homo sapiens, UniProt P43005); experiment: Substrate-gated anion (NO3) currents in Xenopus oocytes expressing EAAT3; assay type: cell-based; conditions: 1 mM substrate, NaNO3, oocytes expressing EAAT3 alone, Figure 7C, n = 6
T1 sequence (P43005 1-524): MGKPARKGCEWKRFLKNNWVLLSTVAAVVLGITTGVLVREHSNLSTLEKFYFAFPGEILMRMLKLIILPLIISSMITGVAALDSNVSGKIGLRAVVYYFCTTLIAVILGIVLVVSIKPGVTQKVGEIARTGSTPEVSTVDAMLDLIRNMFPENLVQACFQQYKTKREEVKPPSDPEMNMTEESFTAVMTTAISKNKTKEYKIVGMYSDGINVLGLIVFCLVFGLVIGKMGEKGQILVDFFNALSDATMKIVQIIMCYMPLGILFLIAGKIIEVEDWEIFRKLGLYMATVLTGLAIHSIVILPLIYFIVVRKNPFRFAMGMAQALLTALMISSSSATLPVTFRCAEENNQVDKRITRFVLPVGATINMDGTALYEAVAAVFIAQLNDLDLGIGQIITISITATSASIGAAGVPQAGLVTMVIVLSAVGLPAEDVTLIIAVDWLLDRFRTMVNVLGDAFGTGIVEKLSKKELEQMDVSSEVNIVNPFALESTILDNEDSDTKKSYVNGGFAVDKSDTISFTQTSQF
Experimental: (§1) mRNA from linearized pOTV-EAAT1, pOTV-EAAT2 and pOTV-EAAT3 was generated as previously described and resuspended in RNAase-free water and used for oocytes injections. Xenopus oocytes where injected with 50 nl of mRNA and incubated at 18°C in 96 mM NaCl, 2 mM KCl, 1.8 mM CaCl2, 1.0 mM MgCl2, 5 mM HEPES, pH 7.4 (ND96) supplemented with 2.5 mM Sodium Pyruvate and Gentamicyn for 2 to 3 days prior to using in electrophysiological recordings and radio-labeled transport experiments.
(§2) Oocytes were held at −60 mV, and currents elicited by 200 ms voltage steps between −120 mV and +60 mV were filtered at 2 kHz (−3dB) and digitalized with a sampling rate of 10 kHz using a Digidata AD/DA converter (Molecular Devices, Sunnyvale, CA, USA). Borosilicate pipets where filled with 3 M KCl and typical resistances where 0.2 to 1 MΩ. Transport currents were determined at −60 mV in a gluconate-based ND96 solution. In order to dialyze internal chloride, oocytes were incubated 12 to 24 hours in the gluconate solution. Anion currents were determined at positive potentials (+60 mV) after exchanging the external solution to NO3-based ND96 (replacement of 96 mM NaCl with 96 mM NaNO3) solution in the absence or in the presence of 1 mM external substrates. In experiments using cysteine as a substrate, all solutions contained 2 mM dithiothreitol (DTT). Data were analyzed with a combination of pClamp 9.2 (Axon Instrument) and Sigma Plot (Jandel Scientific, San Rafael, CA, USA). Whole cell current amplitudes are shown without any subtraction protocol. Current-voltage relationships were constructed by plotting the isochronal current 6 ms after the voltage step versus the membrane potential. All data are given as the mean ± standard deviation of the mean (SDM). For evaluation the statistical relevance, the Student’s t-Test was used with an α of 0.05.

[2] = test system: EAAT3 and ASCT1; experiment: Release of preloaded [35S]-L-cysteine from Xenopus oocytes co-expressing EAAT3 and ASCT1; assay type: cell-based, human; conditions: 10 min
Experimental: mRNA from linearized pOTV-EAAT1, pOTV-EAAT2 and pOTV-EAAT3 was generated as previously described and resuspended in RNAase-free water and used for oocytes injections.
(§3) Oocytes were washed 3 times in ND96 buffer followed by incubation for 10 min with non-radiolabeled substrates as indicated. The supernatant was removed and collected for scintillation counting, while the oocytes were lysed in 1% sodium dodecylsulfate (SDS). The oocytes lysate and supernatant were counted separately by liquid scintillation counting to determine both retained and released radioactivity respectively. Percent of released radioactivity was determined as a function of the released/(retained + released).

[3] = target: T2, EAAT3 and ASCT1 (Homo sapiens, UniProt P43005); experiment: Release of preloaded [3H]-L-glutamate from Xenopus oocytes co-expressing EAAT3 and ASCT1; assay type: cell-based; conditions: 1 mM extracellular substrate, data not shown
T2 construct: expressed in transfected cells; host or cells: Xenopus oocytes
T2 sequence (P43005 1-524): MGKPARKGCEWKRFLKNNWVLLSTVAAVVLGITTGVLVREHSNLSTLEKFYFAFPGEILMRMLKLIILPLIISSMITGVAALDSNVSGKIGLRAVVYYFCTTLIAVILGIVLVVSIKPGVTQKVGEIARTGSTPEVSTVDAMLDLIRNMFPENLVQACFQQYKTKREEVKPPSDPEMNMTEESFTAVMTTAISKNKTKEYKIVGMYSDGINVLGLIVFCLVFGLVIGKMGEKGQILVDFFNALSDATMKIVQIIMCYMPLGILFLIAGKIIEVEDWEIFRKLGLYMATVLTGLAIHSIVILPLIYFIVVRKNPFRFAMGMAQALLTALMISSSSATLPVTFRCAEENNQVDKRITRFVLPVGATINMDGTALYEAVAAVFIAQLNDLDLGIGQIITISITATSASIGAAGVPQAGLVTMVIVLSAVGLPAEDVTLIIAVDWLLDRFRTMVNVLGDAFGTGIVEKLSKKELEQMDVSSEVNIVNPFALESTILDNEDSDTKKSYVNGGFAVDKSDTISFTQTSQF
Experimental: as §1, §3

[4] = test system: EAAT3 and ASCT1; experiment: Substrate-gated NO3 currents in Xenopus oocytes co-expressing EAAT3 and ASCT1; assay type: cell-based, human; conditions: 1 mM substrate, oocytes co-expressing EAAT3 and ASCT1, n = 4
Experimental: as §1
as §2, with “In experiments using cysteine as a substrate, all solutions contained 2 mM dithiothreitol (DTT).” left out, “Whole cell current amplitudes are shown without any subtraction protocol. Current-voltage relationships were constructed by plotting the isochronal current 6 ms after the voltage step versus the membrane potential. All data are given as the mean ± standard deviation of the mean (SDM). For evaluation the statistical relevance, the Student’s t-Test was used with an α of 0.05.” left out

[5] = test system: EAATs; conditions: very low affinity; cited from earlier work
[6] = substrate: N[C@@H](CCC(=O)O)C(=O)O; experiment: cells, lysate or membranes; conditions: other: slope normalized to 1 mM glutamate, 0.5 µM to 2 mM glutamate; pH 7.35; 37.0 °C
[7] = substrate: N[C@@H](C[SeH])C(=O)O; experiment: Two-electrode voltage clamp transport currents in Xenopus oocytes expressing EAAT3; assay type: cell-based, human; conditions: other: -60 mV, normalized transport current vs concentration, n = 6; pH 7.4; 18.0 °C
Experimental: as §1
as §2, with “In experiments using cysteine as a substrate, all solutions contained 2 mM dithiothreitol (DTT).” left out, “Whole cell current amplitudes are shown without any subtraction protocol. Current-voltage relationships were constructed by plotting the isochronal current 6 ms after the voltage step versus the membrane potential. All data are given as the mean ± standard deviation of the mean (SDM). For evaluation the statistical relevance, the Student’s t-Test was used with an α of 0.05.” left out

[8] = substrate: N[C@@H](CCC(=O)O)C(=O)O; experiment: cells, lysate or membranes; assay type: cell-based, human; conditions: other: similarly transfected HEK293 cells
Experimental: For radiolabeled transport experiments, 2×10^6 cells were transfected in 1 mL of Opti-Mem (Life Technologies) using 6 µL of Lipofectamine 2000 (Invitrogen) with 1 µg pCMV-EAAT2 or pCMV-EAAT3 DNA and plated at 5×10^4 cells/well in 24 well Costar (Corning) plates with 0.5 mL DMEM culture media prepared as above. Following transfection and plating, cells were cultured 2–3 days prior to [^3H]-L-Glutamate transport experiments.

## N[C@@H](CO)C(=O)O [serine, L-serine]
[1]
  average anion current amplitude at +60 mV: 0.60±0.05 µA
[2]; 300 µM extracellular substrate
  release of preloaded [35S]-L-cysteine: 10%
[2]; 1 mM extracellular substrate
  release of preloaded [35S]-L-cysteine: 20%
[3]
  release of loaded [3H]-L-glutamate: did not induce significant release
[4]
  macroscopic anion current amplitude at +60 mV: 0.6±0.07 µA
[5]
  affinity for the transporters: > 1 mM

B1: EAAT3 (Homo sapiens) (protein)
chain: MGKPARKGCEWKRFLKNNWVLLSTVAAVVLGITTGVLVREHSNLSTLEKFYFAFPGEILMRMLKLIILPLIISSMITGVAALDSNVSGKIGLRAVVYYFCTTLIAVILGIVLVVSIKPGVTQKVGEIARTGSTPEVSTVDAMLDLIRNMFPENLVQACFQQYKTKREEVKPPSDPEMNMTEESFTAVMTTAISKNKTKEYKIVGMYSDGINVLGLIVFCLVFGLVIGKMGEKGQILVDFFNALSDATMKIVQIIMCYMPLGILFLIAGKIIEVEDWEIFRKLGLYMATVLTGLAIHSIVILPLIYFIVVRKNPFRFAMGMAQALLTALMISSSSATLPVTFRCAEENNQVDKRITRFVLPVGATINMDGTALYEAVAAVFIAQLNDLDLGIGQIITISITATSASIGAAGVPQAGLVTMVIVLSAVGLPAEDVTLIIAVDWLLDRFRTMVNVLGDAFGTGIVEKLSKKELEQMDVSSEVNIVNPFALESTILDNEDSDTKKSYVNGGFAVDKSDTISFTQTSQF
notes: expressed in transfected cells; host or cells: HEK293
[6]
  Km: 30 µM
[7]
  Km: 7.14 ± 0.3 µM
[8]
  Km: 70 µM
